Measurements taken from EPA's ToxValDB 9.5.

What was measured:
[1] = system: Rattus norvegicus; conditions: for NOAEL / LOAEL: Crl:WI (Han)
[2] = system: Rattus norvegicus; conditions: oral
[3] = reproduction developmental, oral, gavage, F, Wistar, generation: F1, F1: body weight + F1: kidney: absolute kidney weight + F1: kidney: relative kidney weight + F1: liver: absolute liver weight + F1: liver: …
[4] = reproduction developmental, oral, gavage, F, Wistar, generation: P0, P0: body weight + P0: developmental toxicity
[5] = reproduction developmental, oral, gavage, M, Wistar, generation: F1, F1: body weight + F1: paternal toxicity
[6] = reproduction developmental, oral, gavage, M, Wistar, generation: P0, P0: body weight + P0: developmental toxicity
[7] = chronic, duration: 123 days, oral, gavage, F, Wistar, Heart: Heart Weight, Relative
[8] = chronic, duration: 123 days, oral, gavage, F, Wistar, Kidney: Kidney, Cortical Tubular Dilation, Multifocal + Whole Body: Body Weight Change
[9] = reproduction developmental, duration: 90 days, oral, gavage, M, generation: P0, P0: General Toxicity: Whole Body: Body Weight Change + P0: General Toxicity: Whole Body: Body Weight, Absolute + P0: General Toxicity: Whole…
[10] = reproduction developmental, duration: 123 days, oral, gavage, F, generation: P0, P0: General Toxicity: Whole Body: Body Weight Change + P0: General Toxicity: Whole Body: Body Weight, Absolute + P0: General Toxicity: Whole…
[11] = subchronic, duration: 90 days, oral, gavage, M, Wistar, Kidney: Blood Urea Nitrogen (BUN), Blood + Kidney: Kidney, Cortical Tubular Dilation, Multifocal + Whole Body: Body Weight Change
[12] = short-term, duration: 28 days, gavage, M/F, Sprague-Dawley, Clinical Observation: Sedation Paleness + Functional Observational Battery: Forelimb grip strength decrease, Motor activity decrease, Motor …
[13] = subchronic, gavage, M, Sprague-Dawley, Water Consumption: increase + Urinalysis: Osmotic pressure decrease, Volume increase, R
[14] = short-term, duration: 28 days, gavage, F, Sprague-Dawley, Clinical Observation: Soiled perigenital fur + Body Weight Changes: Gain decrease + Urinalysis: Pale yellow or yellow/slightly brownish + …
[15] = short-term, duration: 28 days, gavage, M, Sprague-Dawley, Clinical Observation: Soiled perigenital fur + Body Weight Changes: Gain decrease + Urinalysis: Pale yellow or yellow/slightly brownish + …

For `CC(C)(c1ccc(OP(=O)(Oc2ccccc2)Oc2ccccc2)cc1)c1ccc(OP(=O)(Oc2ccccc2)Oc2ccccc2)cc1` [2,2-Bis[4-[bis(phenoxy)phosphoryloxy]phenyl]propane], the NOEL ([1]; acute, duration: 14 days, oral, gavage, F, Crl:CD(SD), body weight gain + toxicity) was 2000 mg/kg-day, the NOEL ([1]; developmental, oral, Sprague-Dawley, generation: F1, F1: embryotoxicity) was 1000 mg/kg-day and the NOEL ([1]; developmental, oral, gavage, Crl:CD(SD), generation: F1, F1: embryotoxicity) was 1000 mg/kg-day. The NOEL ([1]; reproduction developmental, oral, F, Sprague-Dawley, generation: P0, P0: maternal toxicity) was 1000 mg/kg-day, the NOEL ([1]; reproduction developmental, oral, gavage, Crl:CD(SD), generation: F1, F1: fetotoxicity) was 1000 mg/kg-day and the NOEL ([1]; reproduction developmental, oral, gavage, Crl:CD(SD), generation: F1, F1: toxicity) was 1000 mg/kg-day. The NOEL ([1]; reproduction developmental, oral, gavage, F, Crl:CD(SD), generation: P0, P0: body weight + P0: maternal toxicity) was 1000 mg/kg-day, the NOEL ([1]; reproduction developmental, oral, gavage, F, Crl:CD(SD), generation: P0, P0: body weight gain + P0: maternal toxicity + P0: uterus: gravid uterine weight) was 500 mg/kg-day and the NOEL ([1]; reproduction developmental, oral, gavage, F, Crl:CD(SD), generation: P0, P0: body weight gain + P0: ovary: ovary weight + P0: toxicity) was 100 mg/kg-day. It also gave an NOEL ([1]; reproduction developmental, oral, gavage, F, Crl:CD(SD), generation: P0, P0: body weight gain + P0: toxicity) of 1000 mg/kg-day, an NOEL ([1]; reproduction developmental, oral, gavage, F, Crl:CD(SD), generation: P0, P0: body weight gain + P0: uterus: Gravid uterus weight) of 1000 mg/kg-day and an NOEL ([1]; reproduction developmental, oral, gavage, F, Crl:CD(SD), generation: P0, P0: toxicity) of 1000 mg/kg-day. For the same molecule, the LOEL [1, 3] was 200 mg/kg-day, the NOEL [1, 3] was 100 mg/kg-day and the NOEL ([1]; reproduction developmental, oral, gavage, F, Wistar, generation: F1, F1: toxicity) was 1000 mg/kg-day. For the same molecule, the LOEL [1, 4] was 200 mg/kg-day, the NOEL [1, 4] was 100 mg/kg-day and the NOEL ([1]; reproduction developmental, oral, gavage, F, Wistar, generation: P0, P0: maternal toxicity) was 1000 mg/kg-day. For the same molecule, the NOEL ([1]; reproduction developmental, oral, gavage, F, Wistar, generation: P0, P0: toxicity) was 1000 mg/kg-day, the NOEL ([1]; reproduction developmental, oral, gavage, M/F, Crl:CD(SD), generation: F1, F1: body weight + F1: toxicity) was 1000 mg/kg-day and the NOEL ([1]; reproduction developmental, oral, gavage, M, Crl:CD(SD), generation: P0, P0: body weight gain + P0: kidney: kidney: absolute weight + P0: spleen: spleen weight + P0: toxicity) was 1000 mg/kg-day. For the same molecule, the LOEL [1, 5] was 200 mg/kg-day, the NOEL [1, 5] was 100 mg/kg-day and the NOEL ([1]; reproduction developmental, oral, gavage, M, Wistar, generation: F1, F1: toxicity) was 1000 mg/kg-day. For the same molecule, the LOEL [1, 6] was 200 mg/kg-day, the NOEL [1, 6] was 100 mg/kg-day and the NOEL ([1]; reproduction developmental, oral, gavage, M, Wistar, generation: P0, P0: toxicity) was 1000 mg/kg-day. The NOEL ([1]; reproduction developmental, oral, gavage, Wistar, generation: F1, F1: developmental toxicity) was 1000 mg/kg-day, the NOEL ([1]; short-term, duration: 28 days, oral, diet, M, Sprague-Dawley, toxicity) was 1860 mg/kg-day and the NOEL ([1]; short-term, duration: 28 days, oral, gavage, F, Sprague-Dawley, body weight + toxicity) was 1000 mg/kg-day. For the same molecule, the NOEL ([1]; short-term, duration: 28 days, oral, gavage, F, Sprague-Dawley, liver: absolute liver weight + ovary: ovary weight + toxicity) was 1000 mg/kg-day, the NOEL ([1]; short-term, duration: 28 days, oral, gavage, F, Sprague-Dawley, toxicity) was 1000 mg/kg-day and the NOEL ([1]; short-term, duration: 28 days, oral, gavage, M, Sprague-Dawley, body weight + toxicity) was 1000 mg/kg-day. The NOEL ([1]; short-term, duration: 28 days, oral, gavage, M, Sprague-Dawley, toxicity) was 1000 mg/kg-day, the NOEL ([1]; short-term, oral, gavage, F, Sprague-Dawley, toxicity) was 1000 mg/kg-day and the NOEL ([1]; short-term, oral, gavage, M, Sprague-Dawley, toxicity) was 1000 mg/kg-day. It also gave an NOEL ([1]; subchronic, duration: 90 days, oral, gavage, F, Crj:CD, body weight + toxicity) of 1000 mg/kg-day, an NOEL ([1]; subchronic, duration: 90 days, oral, gavage, F, Sprague-Dawley, body weight + toxicity) of 1000 mg/kg-day and an NOEL ([1]; subchronic, duration: 90 days, oral, gavage, M, Crj:CD, body weight + toxicity) of 1000 mg/kg-day. The NOEL ([1]; subchronic, duration: 90 days, oral, gavage, M, Sprague-Dawley, body weight + toxicity) was 1000 mg/kg-day, the NOEL ([1]; subchronic, oral, gavage, F, Sprague-Dawley, toxicity) was 1000 mg/kg-day and the NOEL ([1]; subchronic, oral, gavage, M, Sprague-Dawley, toxicity) was 1000 mg/kg-day.
`O=S(=O)(O)CCC(F)(F)C(F)(F)C(F)(F)C(F)(F)C(F)(F)C(F)(F)F` [6:2 Fluorotelomer sulfonic acid] was tested, and the NEL ([1]; chronic, duration: 123 days, oral, gavage, F, Wistar, Blood: Albumin/Globulin (A/G) Ratio + Blood: Basophils + Blood: Calcium (CA), Blood + Blood: Chloride (CL), Blood + Blood: Cholesterol (CHOL…) was 45 mg/kg-day, the LEL [1, 7] was 15 mg/kg-day and the NEL [1, 7] was 5 mg/kg-day. For the same molecule, the LEL [1, 8] was 45 mg/kg-day, the NEL [1, 8] was 15 mg/kg-day and the NOAEL ([1]; developmental, duration: 34 days, parental, M/F, generation: F1, F1: Developmental: Nipples: Nipple Retention + F1: Developmental: Thyroid: Thyroid Gland Weight, Absolute + F1: Developmental: Thyroid: …) was 45 mg/kg-day. For the same molecule, the NEL ([1]; developmental, duration: 34 days, parental, M/F, Wistar, generation: F1, F1: Nipples: Nipple Retention + F1: Thyroid: Thyroid Gland Weight, Absolute + F1: Thyroid: Thyroid Gland Weight, Relative + F1: Thyroid: …) was 45 mg/kg-day, the LOAEL [1, 9] was 45 mg/kg-day and the NOAEL [1, 9] was 15 mg/kg-day. It also gave an NOAEL ([1]; reproduction developmental, duration: 90 days, oral, gavage, M, generation: P0, P0: Reproductive: Whole Body: Days of Cohabitation + P0: Reproductive: Whole Body: Fertility Index + P0: Reproductive: Whole Body: Percent …) of 45 mg/kg-day, an NEL ([1]; reproduction developmental, duration: 90 days, oral, gavage, M, Wistar, Whole Body: Days of Cohabitation + Whole Body: Fertility Index + Whole Body: Percent Mating) of 45 mg/kg-day and an NOAEL ([1]; reproduction developmental, duration: 123 days, oral, gavage, F, generation: P0, P0: Developmental: Uterus: Abortions + P0: Developmental: Uterus: Litter Loss + P0: Reproductive: Vagina: Uterus (With Cervix) Weight, …) of 45 mg/kg-day. It also gave an NOAEL ([1]; reproduction developmental, duration: 123 days, oral, gavage, F, generation: P0, P0: Developmental: Uterus: Post-Implantation Loss + P0: Developmental: Uterus: Pre-Implantation Loss + P0: Reproductive: Ovary: Ovary …) of 45 mg/kg-day, an LOAEL [1, 10] of 45 mg/kg-day and an NOAEL [1, 10] of 15 mg/kg-day. The NEL ([1]; reproduction developmental, duration: 123 days, oral, gavage, F, Wistar, Ovary: Ovary Histopathology + Ovary: Ovary Weight, Absolute + Uterus: Estrous Cycle, Length + Uterus: Post-Implantation Loss + Uterus: Pre-…) was 45 mg/kg-day, the NEL ([1]; reproduction developmental, duration: 123 days, oral, gavage, F, Wistar, generation: P0, P0: Uterus: Abortions + P0: Uterus: Resorptions, Mean/Litter + P0: Vagina: Uterus (With Cervix) Weight, Absolute + P0: Vagina: Vagina …) was 45 mg/kg-day and the NEL ([1]; subchronic, duration: 90 days, oral, gavage, M, Wistar, Blood: Albumin/Globulin (A/G) Ratio + Blood: Basophils + Blood: Calcium (CA), Blood + Blood: Chloride (CL), Blood + Blood: Cholesterol (CHOL…) was 45 mg/kg-day. It also gave an LEL [1, 11] of 45 mg/kg-day, an NEL [1, 11] of 15 mg/kg-day and an LEL ([1]; subchronic, duration: 90 days, oral, gavage, M, Wistar, Kidney: Kidney Weight, Absolute + Kidney: Kidney Weight, Relative + Liver: Albumin (A), Blood + Whole Body: Total Protein (TP), Blood) of 5 mg/kg-day.
`CCOC(N)=O` [Urethane] showed an LOAEL [2, 12] of 100 mg/kg-day, an LOEL [2, 12] of 100 mg/kg-day and an NOAEL [2, 12] of 20 mg/kg-day. It also gave an NOEL [2, 12] of 20 mg/kg-day, an NOEL ([2]; subchronic, drinking water, F, Fischer 344, Deaths + Body Weight Changes: decrease + Water Consumption: decrease + Hematology: WBC decrease, Lympho decrease + Blood Chemistry: BUN …) of 10 mg/kg-day and an NOEL ([2]; subchronic, drinking water, F, Fischer 344, Deaths + Clinical Observation: Thinness, abnormal posture, and ruffled fur + Body Weight Changes: decrease + Water Consumption: decrease + …) of 11 mg/kg-day. For the same molecule, the NOEL ([2]; subchronic, drinking water, M/F, Fischer 344, Deaths + Body Weight Changes: decrease + Water Consumption: decrease + Hematology: WBC decrease, Lympho decrease + Blood Chemistry: BUN …) was less than 16.7 mg/kg-day and the NOEL ([2]; subchronic, drinking water, M/F, Fischer 344, Deaths + Clinical Observation: Thinness, abnormal posture, and ruffled fur + Body Weight Changes: decrease + Water Consumption: decrease + …) was less than 16.7 mg/kg-day.
`NS(=O)(=O)Cc1noc2ccccc12` [Zonisamide] was tested, and the NOAEL ([2]; short-term, duration: 28 days, gavage, M/F, Sprague-Dawley, Deaths + Clinical Observation: Locomotor activity decrease, Ataxic gait Hypotonia, Abdominal region + Body Weight Changes: Body weight gain …) was 20 mg/kg-day.
With `CC(O)c1ccccc1` (stereo not drawn) [alpha-Methylbenzyl alcohol] the NOEL ([2]; subchronic, duration: 13 weeks, gavage, M/F, Fischer 344, Deaths + Clinical Observation: Ataxia Rapid breathing Lethargy + Body Weight Changes: decrease + Urinalysis: -- + Absolute Organ Weight: …) was less than 93 mg/kg-day.
`O=C(O)[C@H]1CCCC[C@H]1C(=O)O` [cis-1,2-Cyclohexanedicarboxylic acid] was tested, and the NOEL ([2]; subchronic, gavage, M, Sprague-Dawley, Deaths + Clinical Observation: Dead (4/12)Soiled perigenitalia of urine + Hematology: WBC increase, Neutrophils(%) increase, Lymphocytes(%) …) was 300 mg/kg-day.
For `NCCS(=O)(=O)O` [l-Taurine], the LOEL [2, 13] was 1000 mg/kg-day, the NOAEL [2, 13] was 1000 mg/kg-day and the NOEL [2, 13] was 300 mg/kg-day.
`CCC(C)(C)OC` [tert-Amyl methyl ether] gave an NOAEL ([2]; short-term, duration: 29 days, gavage, M/F, Sprague-Dawley, Deaths + Clinical Observation: Rales Anogenital staining + Body Weight Changes: Mean body weight decrease + Food Consumption: decrease + …) of 125 mg/kg-day.
`CCC(C)(C)c1ccccc1` [tert-Pentylbenzene] gave an LOEL [2, 14] of 1000 mg/kg-day, an NOEL [2, 14] of 300 mg/kg-day and an LOEL [2, 15] of 100 mg/kg-day. The NOEL [2, 15] was less than 100 mg/kg-day.
